Earlier results on two compounds are cited in patent US20120129153A1, “Diagnostic method for the prediction of the development and control of the effectiveness of the treatment of oncological illnesses” (priority 2010, published 2012).

Series [1] has as its system neuroblastomal cells infected by HCMV. Conditions: HCMV-infected neuroblastomal cells resistant to cysplatin and etoposide; virus reproduction blocked with Ganciclovir.
Series [2] has as its system EBV-associated nasopharyngeal carcinomas. Conditions: EBV-associated nasopharyngeal carcinomas in athymous mice.

Structures are written as SMILES.

Turning to `Nc1nc(O)c2ncn(COC(CO)CO)c2n1` [Ganciclovir], in series [1], the “sensitivity of the cells to the action of anti-tumor drugs” value is on record as “fully restored”.
As to `Nc1ccn(C[C@@H](CO)OCP(=O)(O)O)c(=O)n1` [Cidofovir, (S)-1-(3-hydroxy-2-phpsphonyl-methoxypropyl)cytosine], the “induction of apoptosis in EBV-transformed epithelial cells” value in series [2] was “causes a quick induction of apoptosis”.
